Some results are limits rather than exact numbers.

Test system in one data set: not listed separately
The experiment in a line: Acute toxicity. The note with it: mouse, in vivo; male SCL-ICR mice, single shot, lethality at 1 week; route not given. The method, then: The test compounds were administered to male mice of SCL-ICR-strain, 7 weeks age, at several dosage (single shot) and LD50, 50% lethal dose, was estimated from the number of lethal mice at 1 week past to the administration.
In turn, `O=C1CCC(C(=O)OCc2ccc(Cl)cc2)N1` (centres unmarked) [Compound 1, p-Chlorobenzyl 2-pyrrolidone-5-carboxylate] displayed a 50% lethal dose (LD50) at 168 h greater than 2590 mg/kg.
Still for that read-out and setting: next, `O=C1CCC(C(=O)OCc2ccccn2)N1` (centres unmarked) [Compound 2, 2-Pyridylmethyl 2-pyrrolidone-5-carboxylate]: 1540 mg/kg.
Still for that read-out and setting: next, `O=C1CCC(C(=O)OCc2cccnc2)N1` (centres unmarked) [Compound 3, 3-Pyridylmethyl 2-pyrrolidone-5-carboxylate]: greater than 2590 mg/kg.
Still for that read-out and setting: next, `O=C1CCC(C(=O)OCc2ccncc2)N1` (centres unmarked) [Compound 4, 4-Pyridylmethyl 2-pyrrolidone-5-carboxylate]: greater than 2590 mg/kg; `O=C1CCC(C(=O)OCCc2ccccn2)N1` (centres unmarked) [Compound 5, 2-(2-Pyridyl)ethyl 2-pyrrolidone-5-carboxylate]: greater than 2590 mg/kg; `O=C1CCC(C(=O)OCCCc2ccccn2)N1` (centres unmarked) [Compound 6, 3-(2-Pyridyl)propyl 2-pyrrolidone-5-carboxylate]: less than 1250 mg/kg.
As for `O=C1CCC(C(=O)NCc2ccccn2)N1` (centres unmarked) [Compound 7, N-(2-Pyridylmethyl)-2-pyrrolidone-5-carboxamide], the median lethal dose (LD50) at 168 h is greater than 2590 mg/kg.

The subject of a further data set is ECS-induced amnesic mice. Briefly: One trial passive avoidance task by step-through test (ECS-induced amnesia). Type of data set: in vivo, mice (male, dd-strain). The conditions noted are these: oral, 1 μmole/mouse, 1 hr before training trial; test 24 hr after training. The method, then:
Anti-amnesic effects of the compounds were determined by the following tests. Male mice of dd-strain, weighing 23-30 g, were employed for the experiment, and the test compounds were freshly dissolved in saline and administered orally at a dose of 1 μmole/mouse. (1) One trial passive avoidance task by step-through test A shuttle box composed of a light (7 cm high, 9 cm wide and 15 cm depth) and a dark (12 cm high, 13 cm wide and 15 cm depth) box; the former was lighted using […]-white light fluorescent bar lamp placed at the position of 40 cm from the floor and in the latter the stainless steel floor grids 2.5 mm in diameter were placed at intervals of 4 mm in order to give a foot shock. Both boxes were connected with a gate 3 cm in diameter. As the training trial, each animal was placed in the light box and a foot shock ([…]) was delivered through the floor grid immediately after the animal entered into the dark box, accordingly the animal learned a punishment for the entrance. […] Twenty-four hr after the training trial, the animal was placed again in the light box and step-through (ST) latency, time spent until the animal entered the dark box, was measured. […] The ST-latency on the test trial was measured up to 300 and 600 sec for control and amnesic group, respectively.
On to `O=C1CCC(C(=O)OCc2ccc(Cl)cc2)N1` (centres unmarked) [Compound 1, p-Chlorobenzyl 2-pyrrolidone-5-carboxylate], for which the “ST-latency in ECS-induced amnesic mice” value was “prolonged the ST-latency in ECS-induced amnesic mice significantly”.

Usually LD50 stands for the dose at which mortality reaches 50%. Low values mean greater toxicity, high ones lower toxicity.

For the origin of these results see US4933354A, “2-pyrrolidone-5-carboxylic acid compounds useful for the treatment of mental disorders” (Kissei Pharmaceutical Co., Ltd., priority 1987, dated 1990).
